This note sets out measurements from US7432392B2, “Ester derivatives and medical use thereof” (Japan Tobacco Inc., priority 2003, dated 2008).

The structures appear in SMILES notation. pIC50: −log10 of the molar value.

The target of the test is T1, Microsomal triglyceride transfer protein (MTP) from bovine liver (Bos taurus, UniProt P55156).
T1 construct: the purified MTP was used for the test; from tissue; host or cells: bovine liver
T1 sequence (P55156 12-887): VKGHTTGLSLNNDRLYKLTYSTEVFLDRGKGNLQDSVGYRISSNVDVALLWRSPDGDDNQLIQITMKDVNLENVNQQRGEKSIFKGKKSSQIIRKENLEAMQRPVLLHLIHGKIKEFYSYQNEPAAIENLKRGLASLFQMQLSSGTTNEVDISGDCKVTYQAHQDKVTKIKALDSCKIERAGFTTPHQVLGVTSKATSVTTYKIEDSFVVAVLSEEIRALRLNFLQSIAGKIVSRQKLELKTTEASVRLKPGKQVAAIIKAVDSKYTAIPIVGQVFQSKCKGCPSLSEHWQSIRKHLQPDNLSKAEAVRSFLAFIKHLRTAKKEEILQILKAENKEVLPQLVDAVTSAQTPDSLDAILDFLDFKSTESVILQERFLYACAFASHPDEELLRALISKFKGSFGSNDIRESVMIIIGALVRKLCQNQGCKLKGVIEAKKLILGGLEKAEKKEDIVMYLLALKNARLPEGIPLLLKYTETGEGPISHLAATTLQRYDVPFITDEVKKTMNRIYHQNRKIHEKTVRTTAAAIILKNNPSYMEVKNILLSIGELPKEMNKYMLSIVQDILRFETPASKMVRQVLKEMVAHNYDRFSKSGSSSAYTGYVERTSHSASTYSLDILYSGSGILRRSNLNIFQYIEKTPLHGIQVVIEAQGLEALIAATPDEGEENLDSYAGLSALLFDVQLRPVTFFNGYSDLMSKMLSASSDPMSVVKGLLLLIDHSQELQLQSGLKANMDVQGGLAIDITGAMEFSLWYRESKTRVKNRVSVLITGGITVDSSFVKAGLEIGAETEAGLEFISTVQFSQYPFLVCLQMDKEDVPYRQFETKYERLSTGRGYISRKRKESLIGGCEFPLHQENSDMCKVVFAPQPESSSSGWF
T1 sequence (P05307 21-510 partner): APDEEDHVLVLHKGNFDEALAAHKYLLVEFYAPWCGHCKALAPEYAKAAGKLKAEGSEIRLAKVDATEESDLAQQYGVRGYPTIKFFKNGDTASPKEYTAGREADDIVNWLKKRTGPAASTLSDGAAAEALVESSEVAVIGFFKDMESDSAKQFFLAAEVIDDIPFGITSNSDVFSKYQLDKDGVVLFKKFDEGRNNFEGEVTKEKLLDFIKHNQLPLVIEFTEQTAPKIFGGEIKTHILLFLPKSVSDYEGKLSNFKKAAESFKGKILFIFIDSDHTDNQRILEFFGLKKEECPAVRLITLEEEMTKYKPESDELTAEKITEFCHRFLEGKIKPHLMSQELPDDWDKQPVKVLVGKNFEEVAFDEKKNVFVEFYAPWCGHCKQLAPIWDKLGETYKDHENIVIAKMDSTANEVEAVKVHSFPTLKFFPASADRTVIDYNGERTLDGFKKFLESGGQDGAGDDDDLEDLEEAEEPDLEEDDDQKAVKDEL
Description: Inhibition of interliposomal triglyceride (TG) transfer activity by MTP. The test is classed as biochemical. Conditions: MTP-mediated TG transfer between donor and acceptor liposomes, 37° C., one hour. On the procedure:
Microsomal triglyceride transfer protein (MTP) from bovine liver was partially purified in such a way described below. A buffer (50 mM Tris, 250 mM sucrose, 1 mM EDTA, 0.02% NaN3 (pH 7.4)) for making a homogenate preparation was added to bovine liver, and the mixture was homogenated under ice-cooling, then centrifuged at 10,000×g (4° C., 30 minutes) The supernatant was adjusted to pH 5.1 with hydrochloric acid, and stirred for 30 minutes. The solution was further centrifuged at 10,000×g (4° C., 30 minutes), and 1 mM Tris buffer was added to the precipitated residue, and the mixture was adjusted to pH 8.6 with sodium hydroxide. After addition of 2.7 M ammonium sulfate solution, the mixture was stirred for 30 minutes, then centrifuged at 10,000×g (4° C., 40 minutes). The resulting supernatant was served as a crude extraction fraction of MTP and stored at −80° C. under freezing. In its practical use, the crude extraction fraction of MTP was purified by column chromatography on diethylaminoethyl (DEAE) Sepharose using FPLC (Fast Performance Liquid Chromatography) system, and the purified MTP was used for the test.
Small unilamellar-vesicle (SUV) liposome (donor, 0.25 mol % triolein, 5 mol % cardiolipin) labeled with ^14C-triolein and non-labeled SUV liposome (acceptor, 0.25 mol % triolein) were prepared. A fixed amount of donor and acceptor, and MTP were mixed with a sample dissolved in DMSO or with DMSO. The mixture was incubated in a 15 mM Tris hydrochloride buffer (pH 7.4) containing 40 mM sodium chloride, 1 mM EDTA (ethylenediaminetetraacetic acid), 0.02% NaN3 and 0.5% bovine serum albumin at 37° C. for one hour. After completion of the incubation, a suspension of DEAE cellulose (50% v/v) in 15 mM Tris hydrochloride buffer (pH 7.4) was added to the above solution, and the mixture was centrifuged to separate the donor and the acceptor. The radioactivity in the acceptor was measured by liquid scintillation counter. The value obtained by subtracting the radioactivity in the blank from the amount of radioactivity in the acceptor of a DMSO group was determined as MTP-mediated TG transfer activity, and it was compared with the value obtained by subtracting the radioactivity in the blank from the radioactivity in a sample group. The blank was prepared by adding 15 mM Tris-HCl buffer (pH 7.4) in place of MTP. Inhibition rate (%) was calculated from the values obtained according to the following equation.
Inhibition rate (%)=100×(1 minus ((radioactivity of sample group minus radioactivity of blank group)/(radioactivity of DMSO group minus radioactivity of blank group))). 50% Inhibition rate (IC50) was determined on the basis of the above equation.
With `CCOC(=O)C(COC(=O)Oc1ccc(NC(=O)c2cnc(N(C)C)nc2-c2ccc(C(F)(F)F)cc2)c(C(=O)N(C)C)c1)(C(=O)OCC)c1ccccc1` [Example 2-28], the pIC50 was > 8.00.

Consider `CCOC(=O)C(COC(=O)Oc1c(F)cc(NC(=O)c2ccc(C)cc2-c2ccc(C(F)(F)F)cc2)c(C(=O)N(C)C)c1F)(C(=O)OCC)c1cccs1` [Example 2-29], for which the negative logarithm of the IC50 (pIC50) was > 8.00. The result for `CCOC(=O)C(COC(=O)Oc1c(F)cc(NC(=O)c2ccc(C)nc2-c2ccc(C(F)(F)F)cc2)c(C(=O)N(C)C)c1F)(C(=O)OCC)c1cccs1` [Example 2-30] reads > 8.00; that for `CCN(C)C(=O)C(COC(=O)Oc1c(F)cc(NC(=O)c2ccccc2-c2ccc(C(F)(F)F)cc2)c(C(=O)N(C)C)c1F)(C(=O)N(C)CC)c1ccccc1` [Example 2-31], 7.00 to 8.00. The result for `CCOC(=O)C(COC(=O)Oc1c(F)cc(NC(=O)c2ccc(C(F)(F)F)cc2-c2ccc(C(F)(F)F)cc2)c(C(=O)N(C)C)c1F)(C(=O)OCC)c1cccs1` [Example 2-32] reads > 8.00. For the compound `CCOC(=O)C(COC(=O)Oc1c(F)cc(NC(=O)c2cccc(F)c2-c2ccc(C(F)(F)F)cc2)c(C(=O)N(C)C)c1F)(C(=O)OCC)c1cccs1` [Example 2-33], the pIC50 was > 8.00. The result for `CCOC(=O)C(COC(=O)Oc1c(F)cc(NC(=O)c2cccc(C)c2-c2ccc(C(F)(F)F)cc2)c(C(=O)N(C)C)c1F)(C(=O)OCC)c1cccs1` [Example 2-34] reads > 8.00. With `CCOC(=O)C(COC(=O)Oc1c(F)cc(NC(=O)c2cc(C)ccc2-c2ccc(C(F)(F)F)cc2)c(C(=O)N(C)C)c1F)(C(=O)OCC)c1cccs1` [Example 2-35] the figure was 7.00 to 8.00; with `CCOC(=O)C(COC(=O)Oc1c(F)cc(NC(=O)c2cccc(OC)c2-c2ccc(C(F)(F)F)cc2)c(C(=O)N(C)C)c1F)(C(=O)OCC)c1cccs1` [Example 2-36], > 8.00; with `CCOC(=O)C(COC(=O)Oc1c(F)cc(NC(=O)c2ccc(OC)cc2-c2ccc(C(F)(F)F)cc2)c(C(=O)N(C)C)c1F)(C(=O)OCC)c1cccs1` [Example 2-37], 7.00 to 8.00. The result for `CCOC(=O)C(COC(=O)Oc1c(F)cc(NC(=O)c2ccccc2-c2ccc(C(F)(F)F)cc2)c(C(=O)N2CCOCC2)c1F)(C(=O)OCC)c1cccs1` [Example 2-38] reads 7.00 to 8.00; that for `CCOC(=O)C(COC(=O)Oc1c(F)cc(NC(=O)c2c(C)cccc2-c2ccc(C(F)(F)F)cc2)c(C(=O)N(C)C)c1F)(C(=O)OCC)c1cccs1` [Example 2-39], > 8.00. For `CCOC(=O)C(COC(=O)Oc1c(F)cc(NC(=O)c2ccccc2-c2ccc(C(F)(F)F)c(F)c2)c(C(=O)N(C)C)c1F)(C(=O)OCC)c1cccs1` [Example 2-40], the pIC50 was > 8.00. The result for `CCOC(=O)C(COC(=O)Oc1c(F)cc(NC(=O)c2ccccc2-c2ccc(C(F)(F)F)cc2)c(C(=O)N(C)CCOC)c1F)(C(=O)OCC)c1cccs1` [Example 2-41] reads > 8.00; that for `CCOC(=O)C(COC(=O)Oc1c(F)cc(NC(=O)c2ccccc2-c2ccc(C(F)(F)F)cc2)c(C(=O)N(C)CC(=O)OC)c1F)(C(=O)OCC)c1cccs1` [Example 2-42], 7.00 to 8.00. The result for `CCOC(=O)C(COC(=O)Oc1c(F)cc(NC(=O)c2ccc(C)cc2-c2ccc(C(F)(F)F)cc2)c(C(=O)N2CCOCC2)c1F)(C(=O)OCC)c1cccs1` [Example 2-43] reads 7.00 to 8.00. `CCOC(=O)C(COC(=O)Oc1c(F)cc(NC(=O)c2ccccc2-c2ccc(C(F)(F)F)cc2)c(C(=O)N(C)C)c1F)(C(=O)OCC)c1nccs1` [Example 2-44] gave a pIC50 of 7.00 to 8.00. The result for `CCOC(=O)C(COC(=O)Oc1c(F)cc(NC(=O)c2ccccc2-c2ccc(C(F)(F)F)cc2)c(C(=O)N(C)CCO)c1F)(C(=O)OCC)c1cccs1` [Example 2-45] reads 6.00 to 7.00; that for `CCOC(=O)C(COC(=O)Oc1c(F)cc(NC(=O)c2ccccc2-c2ccc(C(F)(F)F)cc2)c(C(=O)N2CCN(C(C)=O)CC2)c1F)(C(=O)OCC)c1cccs1` [Example 2-46], 6.00 to 7.00.
